Tested on: patients of the REDUCE-IT and earlier EPA placebo-controlled trials
Type: in vivo, human
Conditions: R-I

Compound: CC/C=C\C/C=C\C/C=C\C/C=C\C/C=C\CCCC(=O)OCC [icosapent ethyl, eicosapentaenoic acid ethyl ester]
- Risk Ratio (95% CI): ALP shift: normal to high (Day 1080): 0.395 (0.280 to 0.528) 4
- Risk Ratio (95% CI): ALP shift: normal to high (Day 1440): 0.406 (0.287 to 0.575) 3
- Risk Ratio (95% CI): ALP shift: normal to high (Day 1800): 0.439 (0.280 to 0.688) 3
- Risk Ratio (95% CI): ALP shift: normal to low (Day 120): 3.341 (1.343 to 8.311) −4
- Risk Ratio (95% CI): ALP shift: normal to low (Day 360): 2.394 (0.994 to 5.767) −3
- Risk Ratio (95% CI): ALP shift: normal to low (Day 720): 2.783 (1.178 to 6.572) −4
- Risk Ratio (95% CI): ALP shift: normal to low (Day 1080): 1.938 (0.831 to 4.522) −3
- Risk Ratio (95% CI): ALP shift: normal to low (Day 1440): 1.199 (0.562 to 2.556) −1
- Risk Ratio (95% CI): Albumin high (Day 120): 2.263 (1.388 to 3.689) −3
- Risk Ratio (95% CI): Albumin high (Day 360): 1.901 (1.217 to 2.969) −3
- Risk Ratio (95% CI): Albumin high (Day 720): 1.365 (0.975 to 1.911) −2
- Risk Ratio (95% CI): Albumin high (Day 1080): 1.449 (0.993 to 2.115) −2
- Risk Ratio (95% CI): Albumin high (Day 1440): 1.540 (1.001 to 2.369) −2
- Risk Ratio (95% CI): Albumin shift: normal to high (Day 120): 3.055 (1.709 to 5.461) −4
- Risk Ratio (95% CI): Albumin shift: normal to high (Day 360): 2.364 (1.388 to 4.027) −3
- Risk Ratio (95% CI): Albumin shift: normal to high (Day 720): 1.475 (1.028 to 2.116) −2
- Risk Ratio (95% CI): Albumin shift: normal to high (Day 1080): 1.257 (0.848 to 1.864) −2
- Risk Ratio (95% CI): Albumin shift: normal to high (Day 1440): 1.531 (0.974 to 2.408) −2
- Risk Ratio (95% CI): Bilirubin >1x ULN to 2x ULN: 3.157 (2.392 to 4.168) −4
- Risk Ratio (95% CI): Bilirubin high (Day 120): 4.288 (2.849 to 6.454) −4
- Risk Ratio (95% CI): Bilirubin high (Day 360): 3.263 (2.203 to 4.832) −4
- Risk Ratio (95% CI): Bilirubin high (Day 720): 5.052 (3.174 to 8.039) −5
- Risk Ratio (95% CI): Bilirubin high (Day 1080): 2.430 (1.683 to 3.508) −3
- Risk Ratio (95% CI): Bilirubin high (Day 1440): 3.543 (2.243 to 5.596) −4
- Risk Ratio (95% CI): Bilirubin high (Day 1800): 2.670 (1.569 to 4.545) −4
- Risk Ratio (95% CI): Bilirubin shift: normal to high (Day 120): 5.106 (2.754 to 9.467) −5
- Risk Ratio (95% CI): Bilirubin shift: normal to high (Day 360): 5.431 (2.773 to 10.636) −5
- Risk Ratio (95% CI): Bilirubin shift: normal to high (Day 720): 4.803 (2.516 to 9.168) −4
- Risk Ratio (95% CI): Bilirubin shift: normal to high (Day 1080): 2.235 (1.374 to 3.636) −3
- Risk Ratio (95% CI): Bilirubin shift: normal to high (Day 1440): 5.445 (2.687 to 11.034) −5
- Risk Ratio (95% CI): Bilirubin shift: normal to high (Day 1800): 2.556 (1.242 to 5.259) −4
- Risk Ratio (95% CI): Calcium high (Day 120): 0.799 (0.517 to 1.236) 2
- Risk Ratio (95% CI): Calcium high (Day 360): 0.915 (0.593 to 1.412) 1
- Risk Ratio (95% CI): Calcium high (Day 720): 0.767 (0.491 to 1.200) 2
- Risk Ratio (95% CI): Calcium low (Day 120): 1.399 (0.444 to 4.404) −2
- Risk Ratio (95% CI): Calcium low (Day 360): 9.856 (1.262 to 76.953) −5
- Risk Ratio (95% CI): Calcium low (Day 720): 2.911 (0.789 to 10.744) −4
- Risk Ratio (95% CI): DBP High (≥100 mmHg): 1.121 (0.931 to 1.350) −1
- Risk Ratio (95% CI): DBP High and Rose ≥10 mmHg: 1.092 (0.888 to 1.344) −1
- Risk Ratio (95% CI): DBP Low (≤50 mmHG): 1.136 (0.732 to 1.763) −1
- Risk Ratio (95% CI): DBP Low and dropped ≥10 mmHg: 1.030 (0.644 to 1.648) −1
- Risk Ratio (95% CI): DBP dropped ≥10 mmHG: 1.087 (1.028 to 1.150) −1
- Risk Ratio (95% CI): DBP rose ≥10 mmHg: 0.983 (0.927 to 1.041) 1
- Risk Ratio (95% CI): High platelets (Day 720): 1.503 (1.007 to 2.242) −2
- Risk Ratio (95% CI): Low platelets (Day 360): 0.366 (0.253 to 0.530) 4
- Risk Ratio (95% CI): Low platelets (Day 720): 0.799 (0.608 to 1.051) 2
- Risk Ratio (95% CI): Low platelets (Day 1080): 0.688 (0.512 to 0.925) 2
- Risk Ratio (95% CI): Platelet count: PCS Low <100 × 10^3/uL: 0.442 (0.258 to 0.758) 3
- Risk Ratio (95% CI): SBP High (≥160 mmHg): 0.912 (0.833 to 1.000) 1
- Risk Ratio (95% CI): SBP High and rose ≥20 mmHg: 0.908 (0.805 to 1.023) 1
- Risk Ratio (95% CI): SBP Low (≤90 mmHg): 1.819 (1.093 to 3.055) −3
- Risk Ratio (95% CI): SBP dropped ≥20 mmHg: 1.117 (1.033 to 1.208) −1
- Risk Ratio (95% CI): SBP low and dropped ≥20 mmHg: 1.422 (0.792 to 2.553) −2
- Risk Ratio (95% CI): SBP rose ≥20 mmHg: 0.976 (0.912 to 1.045) 1
- Risk Ratio (95% CI): Urate high (Day 120): 1.398 (1.246 to 1.568) −2
- Risk Ratio (95% CI): Urate high (Day 360): 1.350 (1.197 to 1.523) −2
- Risk Ratio (95% CI): Urate high (Day 720): 1.323 (1.162 to 1.506) −2
- Risk Ratio (95% CI): Urate high (Day 1080): 1.102 (0.961 to 1.263) −1
- Risk Ratio (95% CI): Urate high (Day 1440): 1.109 (0.956 to 1.286) −1
- Risk Ratio (95% CI): Urate high (Day 1800): 1.084 (0.883 to 1.331) −1
- Risk Ratio (95% CI): Urate shift: normal to high (Day 120): 1.689 (1.369 to 2.084) −3
- Risk Ratio (95% CI): Urate shift: normal to high (Day 360): 1.674 (1.363 to 2.056) −3
- Risk Ratio (95% CI): Urate shift: normal to high (Day 720): 1.513 (1.227 to 1.865) −2
- Risk Ratio (95% CI): Urate shift: normal to high (Day 1080): 1.118 (0.910 to 1.374) −1
- Risk Ratio (95% CI): Urate shift: normal to high (Day 1440): 1.079 (0.879 to 1.324) −1
- Risk Ratio (95% CI): Urate shift: normal to high (Day 1800): 1.029 (0.782 to 1.355) −1
- Risk Ratio (95% CI): Urate shift: normal to low (Day 120): 1.654 (0.396 to 6.915) −2
- Risk Ratio (95% CI): Urate shift: normal to low (Day 360): 0.733 (0.255 to 2.110) 2
- Risk Ratio (95% CI): Urate shift: normal to low (Day 720): 0.361 (0.096 to 1.360) 4
- Risk Ratio (95% CI): Urate shift: normal to low (Day 1080): 0.474 (0.119 to 1.893) 3
